The values below come from ChEMBL document CHEMBL4431356, “Synthesis and activity of benzimidazole-1,3-dioxide inhibitors of separase” (Bioorg Med Chem Lett, 2016).

By IC50 is commonly meant the concentration that inhibits the measured activity by half. Lower therefore signals greater potency in that assay.

T1 sequence (Q14674 whole entry): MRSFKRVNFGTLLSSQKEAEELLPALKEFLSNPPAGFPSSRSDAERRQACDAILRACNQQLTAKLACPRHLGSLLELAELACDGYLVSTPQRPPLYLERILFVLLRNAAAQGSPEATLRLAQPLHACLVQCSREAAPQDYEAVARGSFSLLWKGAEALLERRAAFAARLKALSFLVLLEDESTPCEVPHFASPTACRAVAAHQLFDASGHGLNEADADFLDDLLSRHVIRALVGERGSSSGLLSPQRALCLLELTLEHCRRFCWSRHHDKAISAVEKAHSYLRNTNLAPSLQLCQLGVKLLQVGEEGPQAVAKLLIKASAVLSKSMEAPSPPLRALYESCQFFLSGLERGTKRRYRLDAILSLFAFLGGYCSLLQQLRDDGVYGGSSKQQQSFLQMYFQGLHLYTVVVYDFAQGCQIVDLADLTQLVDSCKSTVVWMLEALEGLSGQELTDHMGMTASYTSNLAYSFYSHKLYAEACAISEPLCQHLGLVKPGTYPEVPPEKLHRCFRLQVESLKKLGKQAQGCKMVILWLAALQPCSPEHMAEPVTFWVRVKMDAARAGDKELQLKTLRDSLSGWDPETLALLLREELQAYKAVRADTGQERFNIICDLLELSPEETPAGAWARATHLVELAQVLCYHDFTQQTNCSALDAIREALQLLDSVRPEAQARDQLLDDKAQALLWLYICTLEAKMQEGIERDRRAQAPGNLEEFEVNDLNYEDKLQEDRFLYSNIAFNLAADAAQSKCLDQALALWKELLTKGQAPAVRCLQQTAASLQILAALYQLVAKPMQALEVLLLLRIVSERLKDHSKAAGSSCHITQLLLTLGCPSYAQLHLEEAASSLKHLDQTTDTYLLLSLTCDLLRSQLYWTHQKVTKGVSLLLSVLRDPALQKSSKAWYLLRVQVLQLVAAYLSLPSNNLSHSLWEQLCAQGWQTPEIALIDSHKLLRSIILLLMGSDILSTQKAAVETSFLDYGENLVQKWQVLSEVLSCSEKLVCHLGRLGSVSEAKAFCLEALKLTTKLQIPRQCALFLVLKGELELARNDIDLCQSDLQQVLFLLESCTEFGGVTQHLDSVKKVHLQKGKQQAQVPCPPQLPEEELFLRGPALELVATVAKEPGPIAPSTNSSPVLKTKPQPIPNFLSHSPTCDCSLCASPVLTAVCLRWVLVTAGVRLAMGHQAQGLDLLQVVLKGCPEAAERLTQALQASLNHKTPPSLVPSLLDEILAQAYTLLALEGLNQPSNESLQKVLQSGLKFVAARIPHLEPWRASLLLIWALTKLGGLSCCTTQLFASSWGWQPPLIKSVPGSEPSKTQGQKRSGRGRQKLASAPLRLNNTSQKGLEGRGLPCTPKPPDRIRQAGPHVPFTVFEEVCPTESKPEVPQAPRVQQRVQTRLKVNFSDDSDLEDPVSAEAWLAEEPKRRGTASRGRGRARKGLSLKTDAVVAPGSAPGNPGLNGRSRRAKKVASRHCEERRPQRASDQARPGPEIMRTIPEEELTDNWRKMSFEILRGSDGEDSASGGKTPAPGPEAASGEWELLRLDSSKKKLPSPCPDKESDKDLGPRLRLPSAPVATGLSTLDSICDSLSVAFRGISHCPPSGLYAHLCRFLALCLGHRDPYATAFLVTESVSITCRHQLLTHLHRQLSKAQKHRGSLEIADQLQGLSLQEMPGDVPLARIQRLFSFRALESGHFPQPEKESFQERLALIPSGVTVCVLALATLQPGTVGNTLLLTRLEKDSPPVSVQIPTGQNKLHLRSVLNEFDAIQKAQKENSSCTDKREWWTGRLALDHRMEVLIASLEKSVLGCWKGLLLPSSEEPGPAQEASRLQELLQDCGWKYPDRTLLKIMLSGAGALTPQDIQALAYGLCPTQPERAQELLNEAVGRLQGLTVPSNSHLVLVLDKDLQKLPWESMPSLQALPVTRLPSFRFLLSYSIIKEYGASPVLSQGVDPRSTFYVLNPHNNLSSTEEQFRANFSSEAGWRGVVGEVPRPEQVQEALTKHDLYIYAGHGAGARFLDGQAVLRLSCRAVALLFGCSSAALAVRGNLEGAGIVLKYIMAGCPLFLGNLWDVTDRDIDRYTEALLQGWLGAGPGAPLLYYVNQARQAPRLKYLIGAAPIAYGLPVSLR

The first test addresses T1, Separin (Homo sapiens, UniProt Q14674). The test is described as follows: Inhibition of human ZZ TEV4-tagged separase expressed in human 293T cells using (Rad21)2-Rh110 as substrate preincubated for 1 hr followed by substrate addition measured after 3 hrs by fluorescence assay.
As for `CC1(C)[N+]([O-])=c2ccc([N+](=O)[O-])cc2=[N+]1[O-]`, the IC50 came to 15 µM.

Another test deals with T1, Separin. The test is described as follows: Inhibition of epitope-tagged separase (unknown origin) using Rad21-MCA as substrate preincubated for 1 hr followed by substrate addition measured after 3 hrs by fluorescence assay.
In the case of `CC1(C)[N+]([O-])=c2ccc(Br)cc2=[N+]1[O-]`, the IC50 is > 100 µM. Consider `CC1(C)[N+]([O-])=c2ccc(C(=O)O)cc2=[N+]1[O-]`, for which the IC50 is > 100 µM.

On to `CCOc1cc2c(cc1F)=[N+]([O-])C(C)(C)[N+]=2[O-]`, for which the IC50 is > 100 µM.

On to `CC1(C)[N+]([O-])=c2ccc([N+](=O)[O-])cc2=[N+]1[O-]`, for which the IC50 worked out at 17.8 µM.

Regarding `CCCCNc1ccc2c(c1)=[N+]([O-])C(C)(C)[N+]=2[O-]`, the IC50 is > 100 µM. Still for that read-out and setting: the result for `CC1(C)[N+]([O-])=c2ccc(C(F)(F)F)cc2=[N+]1[O-]` reads > 100 µM. As to `COC(=O)c1ccc2c(c1)[n+]([O-])c(C)c(C)[n+]2[O-]`, the IC50 is > 100 µM.

`O=[N+]([O-])c1ccc2nonc2c1`: the IC50 is > 100 µM. The same measure, in the same setting: under `CC1(C)[N+]([O-])=c2ccc(-c3ccccc3)cc2=[N+]1[O-]` stands > 100 µM; under `CC1(C)[N+]([O-])=c2ccc(F)cc2=[N+]1[O-]`, > 100 µM; under `COC(=O)c1ccc2c(c1)=[N+]([O-])C(C)(C)[N+]=2[O-]`, > 100 µM. The same measure, in the same setting: the result for `CCOc1ccc2c(c1)=[N+]([O-])C(C)(C)[N+]=2[O-]` reads > 100 µM. `O=[N+]([O-])c1ccc2c(c1)=[N+]([O-])C1(CCCCC1)[N+]=2[O-]` returned an IC50 of 16.2 µM.
